Test results from patent US4504580A, “Antibiotics produced by fermentation of a novel strain of Streptomyces hygroscopicus” (Bristol-Myers Company, priority 1983, dated 1985).
≈ marks a conversion by molar mass, not a printed value. Read-outs that look alike come from different tables or passages of the source.

What was measured:
Assay type in all cases: cell-based
[1] = system: Proteus morganii A9553; experiment: MIC by serial two-fold agar dilution, P. morganii A9553; details: Morganella morganii, A9553
Description: (§1) The minimum inhibitory concentrations (MIC) of Bu-2659A, B, C, D and E were determined for a variety of gram-positive and gram-negative bacteria by the serial two-fold agar dilution method using the Steer's multi-inoculating apparatus. The inoculum was standardized as a 10^4 dilution of an overnight culture of the test organisms in Heart Infusion Broth (Difco). […] Reference antibiotics utilized in these tests included commercially available neomycin as well as its components, neomycins B and C [as used herein, the term "neomycin" means the commercial product containing neomycins B and C at an approximate ratio of 7:3], paromomycin [the commercial product containing >90% of paromomycin I and <10% of paromomycin II] and ribostamycin.

[2] = system: Proteus vulgaris A9436; experiment: MIC by serial two-fold agar dilution, P. vulgaris A9436; details: Proteus vulgaris, A9436
Description: as §1

[3] = system: Proteus mirabilis A9906; experiment: MIC by serial two-fold agar dilution, P. mirabilis A9906; details: Proteus mirabilis, A9906
Description: as §1

[4] = system: gram-positive and gram-negative bacteria; experiment: In vitro antibacterial spectra (MIC), overall comparison, Table 7; details: Table 7 organisms
Description: as §1

[5] = system: Proteus mirabilis A9554; experiment: MIC by serial two-fold agar dilution, P. mirabilis A9554; details: Proteus mirabilis, A9554
Description: as §1

[6] = system: Serratia marcescens A20019; experiment: MIC by serial two-fold agar dilution, S. marcescens A20019; details: Serratia marcescens, A20019
Description: as §1

[7] = system: Micrococcus flavus D12; experiment: MIC by serial two-fold agar dilution, M. flavus D12; details: Micrococcus flavus, D12
Description: as §1

[8] = system: Pseudomonas aeruginosa A9930; experiment: MIC by serial two-fold agar dilution, P. aeruginosa A9930; details: Pseudomonas aeruginosa, A9930
Description: as §1

[9] = system: Staphylococcus aureus D136; experiment: MIC by serial two-fold agar dilution, S. aureus D136; details: Staphylococcus aureus, D136
Description: as §1

[10] = system: Micrococcus luteus PCI 1001; experiment: MIC by serial two-fold agar dilution, M. luteus PCI 1001; details: Micrococcus luteus, PCI1001
Description: as §1

[11] = system: Escherichia coli NIHJ; experiment: MIC by serial two-fold agar dilution, E. coli NIHJ; details: Escherichia coli
Description: as §1

[12] = system: Klebsiella pneumoniae D11; experiment: MIC by serial two-fold agar dilution, K. pneumoniae D11; details: Klebsiella pneumoniae, D11
Description: as §1

[13] = system: Pseudomonas aeruginosa D15; experiment: MIC by serial two-fold agar dilution, P. aeruginosa D15; details: Pseudomonas aeruginosa, D15
Description: as §1

[14] = system: Escherichia coli Juhl; experiment: MIC by serial two-fold agar dilution, E. coli Juhl; details: Escherichia coli
Description: as §1

[15] = system: Bacillus subtilis PCI 219; experiment: MIC by serial two-fold agar dilution, B. subtilis PCI 219; details: Bacillus subtilis, PCI219
Description: as §1

[16] = system: Staphylococcus aureus Smith; experiment: MIC by serial two-fold agar dilution, S. aureus Smith; details: Staphylococcus aureus
Description: as §1

[17] = system: Proteus rettgeri A15167; experiment: MIC by serial two-fold agar dilution, P. rettgeri A15167; details: Providencia rettgeri, A15167
Description: as §1

[18] = system: Staphylococcus aureus 209P; experiment: MIC by serial two-fold agar dilution, S. aureus 209P; details: Staphylococcus aureus, 209P
Description: as §1

[19] = system: Escherichia coli JR66/W677; experiment: MIC, aminoglycoside-resistant E. coli JR66/W677; details: Escherichia coli, JR66/W677
Description: as §1

[20] = system: Escherichia coli NR79/W677; experiment: MIC, aminoglycoside-resistant E. coli NR79/W677; details: Escherichia coli, NR79/W677
Description: as §1

[21] = system: Bacillus brevis IFO 12334; experiment: MIC, aminoglycoside-resistant B. brevis IFO 12334; details: Brevibacillus brevis, IFO12334
Description: as §1

[22] = system: Escherichia coli A20107; experiment: MIC, aminoglycoside-resistant E. coli A20107; details: Escherichia coli, A20107; Table 9; inactivating enzyme APH(3')-II; Mueller-Hinton agar; read-out: MIC
Description: as §1

[23] = system: Escherichia coli JR35/C600; experiment: MIC, aminoglycoside-resistant E. coli JR35/C600; details: Escherichia coli, JR35/C600
Description: as §1

[24] = system: Escherichia coli A20732; experiment: MIC, aminoglycoside-resistant E. coli A20732; details: Escherichia coli, A20732; Table 9; inactivating enzyme ANT(2"); Mueller-Hinton agar; read-out: MIC
Description: as §1

[25] = system: Escherichia coli ML 1630; experiment: MIC, aminoglycoside-resistant E. coli ML 1630; details: Escherichia coli, ML1630; Table 9; inactivating enzyme APH(3')-I; Mueller-Hinton agar; read-out: MIC
Description: as §1

[26] = system: Escherichia coli JR88; experiment: MIC, aminoglycoside-resistant E. coli JR88; details: Escherichia coli, JR88
Description: as §1

[27] = system: Pseudomonas aeruginosa A20896; experiment: MIC, aminoglycoside-resistant P. aeruginosa A20896; details: Pseudomonas aeruginosa, A20896
Description: as §1

[28] = system: Staphylococcus aureus A20239; experiment: MIC, aminoglycoside-resistant S. aureus A20239; details: Staphylococcus aureus, A20239
Description: as §1

[29] = system: Enterobacter cloacae A20364; experiment: MIC, aminoglycoside-resistant E. cloacae A20364; details: Enterobacter cloacae, A20364
Description: as §1

[30] = system: Pseudomonas aeruginosa A20601; experiment: MIC, aminoglycoside-resistant P. aeruginosa A20601; details: Pseudomonas aeruginosa, A20601
Description: as §1

[31] = Table 7, Mueller-Hinton agar, read-out: MIC

SMILES | MIC [11, 31] [µg/mL] | MIC [19] [µg/mL] | MIC [20] [µg/mL] | MIC [1] [µg/mL] | MIC [2] [µg/mL] | MIC [3] [µg/mL] | MIC [22] [µg/mL] | MIC [23] [µg/mL] | MIC [5] [µg/mL] | MIC [6] [µg/mL] | MIC [7] [µg/mL] | MIC [24] [µg/mL] | MIC [8] [µg/mL] | MIC [9] [µg/mL] | MIC [25] [µg/mL] | MIC [10] [µg/mL] | MIC [12] [µg/mL] | MIC [13] [µg/mL] | MIC [14] [µg/mL] | MIC [15] [µg/mL] | also measured
NC[C@H]1O[C@H](O[C@H]2[C@H](O[C@@H]3O[C@H](CO)[C@@H](O)[C@H]3O)[C@@H](O)[C@H](O)C[C@@H]2N)[C@H](N)[C@@H](O)[C@@H]1O [Bu-2659E, 1-deamino-1-hydroxyribostamycin] | 50 (≈ 110 µM) |  |  |  |  |  |  |  |  |  |  |  |  |  |  |  |  |  |  |  | MIC [1, 31]: 25 µg/mL (≈ 54.9 µM); MIC [2, 31]: 12.5 µg/mL (≈ 27.4 µM); MIC [3, 31]: 25 µg/mL (≈ 54.9 µM); in vitro antibacterial activity, in words [4]: less active than components B and C; MIC [5, 31]: 12.5 µg/mL (≈ 27.4 µM); MIC [6, 31]: > 100 µg/mL; MIC [7, 31]: > 100 µg/mL; MIC [8, 31]: > 100 µg/mL; MIC [9, 31]: 50 µg/mL (≈ 110 µM); MIC [10, 31]: > 100 µg/mL; MIC [12, 31]: 12.5 µg/mL (≈ 27.4 µM); MIC [13, 31]: > 100 µg/mL; MIC [14, 31]: > 100 µg/mL; MIC [15, 31]: 3.1 µg/mL (≈ 6.81 µM); MIC [16, 31]: 50 µg/mL (≈ 110 µM); MIC [17, 31]: 12.5 µg/mL (≈ 27.4 µM); MIC [18, 31]: 25 µg/mL (≈ 54.9 µM)
NC[C@@H]1O[C@H](O[C@H]2[C@@H](O)[C@H](O[C@@H]3[C@@H](O)[C@H](N)C[C@H](N)[C@H]3O[C@H]3O[C@H](CO)[C@@H](O)[C@H](O)[C@H]3N)O[C@@H]2CO)[C@H](N)[C@@H](O)[C@@H]1O [Paromomycin, paromomycin] | 3.1 (≈ 5.04 µM) | > 100 | > 100 | 1.6 (≈ 2.6 µM) | 0.8 (≈ 1.3 µM) | 0.8 (≈ 1.3 µM) | > 100 | > 100 | 0.8 (≈ 1.3 µM) | 1.6 (≈ 2.6 µM) | 12.5 (≈ 20.3 µM) | 1.6 (≈ 2.6 µM) | 12.5 (≈ 20.3 µM) | 0.8 (≈ 1.3 µM) | > 100 | 6.3 (≈ 10.2 µM) | 0.4 (≈ 0.65 µM) | 50 (≈ 81.2 µM) | 12.5 (≈ 20.3 µM) | 0.2 (≈ 0.325 µM) | MIC [21]: > 100 µg/mL; MIC [26]: 1.6 µg/mL (≈ 2.6 µM); MIC [16]: 1.6 µg/mL (≈ 2.6 µM); MIC [17]: 1.6 µg/mL (≈ 2.6 µM); MIC [27]: > 100 µg/mL; MIC [28]: > 100 µg/mL; MIC [18]: 0.8 µg/mL (≈ 1.3 µM); MIC [29]: > 100 µg/mL; MIC [30]: > 100 µg/mL
NC[C@H]1O[C@H](O[C@H]2[C@H](O[C@@H]3O[C@H](CO)[C@@H](O)[C@H]3O)[C@@H](O)[C@H](N)C[C@@H]2N)[C@H](N)[C@@H](O)[C@@H]1O [Ribostamycin, ribostamycin] |  | > 100 | > 100 | 1.6 (≈ 3.52 µM) | 0.8 (≈ 1.76 µM) | 1.6 (≈ 3.52 µM) | > 100 | > 100 | 1.6 (≈ 3.52 µM) | 25 (≈ 55 µM) | 12.5 (≈ 27.5 µM) | 1.6 (≈ 3.52 µM) | 100 (≈ 220 µM) | 3.1 (≈ 6.82 µM) | > 100 | 6.3 (≈ 13.9 µM) | 0.4 (≈ 0.88 µM) | > 100 | 6.3 (≈ 13.9 µM) | 0.4 (≈ 0.88 µM) | MIC ([21]; Table 9, inactivating enzyme ANT (4'), Mueller-Hinton agar, read-out: MIC): > 100 µg/mL; MIC [11]: 3.1 µg/mL (≈ 6.82 µM); MIC [26]: 1.6 µg/mL (≈ 3.52 µM); MIC [16]: 3.1 µg/mL (≈ 6.82 µM); MIC [17]: 0.8 µg/mL (≈ 1.76 µM); MIC ([27]; Table 9, inactivating enzyme AAC(3)-II, Mueller-Hinton agar, read-out: MIC): > 100 µg/mL; MIC ([28]; Table 9, inactivating enzyme APH(3')-I,II, Mueller-Hinton agar, read-out: MIC): > 100 µg/mL; MIC [18]: 1.6 µg/mL (≈ 3.52 µM); MIC ([29]; Table 9, inactivating enzyme APH(3')-I, Mueller-Hinton agar, read-out: MIC): > 100 µg/mL; MIC ([30]; Table 9, inactivating enzymes AAC(3)-I, APH(3')-II, Mueller-Hinton agar, read-out: MIC): > 100 µg/mL
